Source: patent US20080009418A1, “Selective Inhibitors” (Alchemia LTD., priority 2004, published 2008)

How the values were obtained:
Human μ-opioid (MOP) = biological target: T1, Human μ-opioid (MOP) (Homo sapiens, UniProt P35372); assay: Radioligand binding, human μ-opioid (MOP) membranes, FlashPlate, [3H]-Naloxone; settings: compound at 10 μM; for A7: inhibition of radioligand binding: [3H]-Naloxone, human MOP membranes
T1 construct: purchased Perkin Elmer Biosignal
Method in brief: (§1)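 Cloned human receptor membranes were coated onto FlashPlate wells and incubated with radioligand and compound (added from a 0.5 mM DMSO daughter plate) for 1 hour at room temperature in the dark. Scintillation counting gave percent inhibition, with DMSO defining total and reference ligand defining non-specific binding.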

Human neurokinin (NK1) = biological target: T2, Human neurokinin (NK1) (Homo sapiens, UniProt P25103); assay: Radioligand binding, human neurokinin NK1 membranes, filtration, [125I]-Substance P; settings: compound at 10 μM; for A8: inhibition of radioligand binding: [125I]-Substance P, human NK1 membranes
T2 construct: purchased Perkin Elmer Biosignal
Method in brief: (§2)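 Percent inhibition of radioligand binding measured on recombinant human membranes: NK1 with [125I]-Substance P, KOP with [3H]-Diprenorphine. Incubation 1 h at room temperature, then harvest onto 0.3% PEI-soaked filters, cold Tris-HCl pH 7.4 washes and scintillation counting; non-specific binding from reference ligand wells.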

[1] = biological target: T3, Human melanin-concentrating hormone (MCH1) (Homo sapiens, UniProt Q99705); assay: Radioligand binding, human melanin-concentrating hormone MCH1 membranes, FlashPlate, [125I]-S36057; settings: compound at 10 μM; for A6: inhibition of radioligand binding: [125I]-S36057, human MCH1 membranes
T3 construct: purchased Perkin Elmer Biosignal
Method in brief: as §1

Mouse urotensin (mUR2) = biological target: T4, Mouse urotensin (mUR2) (Mus musculus, UniProt Q8VIH9); assay: Radioligand binding, mouse urotensin mUR2 membranes, FlashPlate, [125I]-Urotensin II; settings: compound at 10 μM; for A11: inhibition of radioligand binding: [125I]-Urotensin II, mouse mUR2 membranes
T4 construct: purchased Perkin Elmer Biosignal
T4 sequence (Q8VIH9 1-385): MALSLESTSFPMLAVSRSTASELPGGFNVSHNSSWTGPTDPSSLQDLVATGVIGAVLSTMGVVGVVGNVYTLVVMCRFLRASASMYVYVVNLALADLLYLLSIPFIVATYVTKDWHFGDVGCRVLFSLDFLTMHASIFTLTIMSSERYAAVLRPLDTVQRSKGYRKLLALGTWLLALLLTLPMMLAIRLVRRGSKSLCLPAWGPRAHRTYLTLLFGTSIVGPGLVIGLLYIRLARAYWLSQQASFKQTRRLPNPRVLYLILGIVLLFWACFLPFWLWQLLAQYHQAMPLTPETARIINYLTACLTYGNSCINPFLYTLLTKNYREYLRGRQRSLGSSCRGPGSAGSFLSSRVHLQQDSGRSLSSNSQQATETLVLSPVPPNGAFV
Method in brief: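 Cloned mouse urotensin (mUR2) receptor membranes from Perkin Elmer Biosignal were immobilized in FlashPlate microplates using a proprietary coating. Each well got 19.5 μl buffer, then 0.5 μl of DMSO, reference ligand, or compound. Adding 5 μl of [125I]-Urotensin II, diluted to 5× final concentration in binding buffer, started binding. Plates were sealed with TopSeal-A and incubated 1 hour at room temperature in the dark. Wells were counted for 30 seconds each on a TopCount after a 60-second delay, and percentage inhibition was calculated.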

Human Melanocortin (MC4) = biological target: T5, Human Melanocortin (MC4) (Homo sapiens, UniProt P32245); assay: Radioligand binding, human melanocortin MC4 membranes, FlashPlate, [125I]-NDP-αMSH; settings: compound at 10 μM; for A4: inhibition of radioligand binding: [125I]-NDP-αMSH, human MC4 membranes
T5 construct: purchased Perkin Elmer Biosignal
Method in brief: as §1

Human opioid (ORL1) = biological target: T6, Human opioid (ORL1) (Homo sapiens, UniProt P41146); assay: Radioligand binding, human opioid ORL1 membranes, FlashPlate, [125I]-Nociceptin; settings: compound at 10 μM, human ORL1 membranes; for A10: inhibition of radioligand binding: [125I]-Nociceptin
T6 construct: purchased Perkin Elmer Biosignal
Method in brief: as §1

Human κ-Opioid (KOP) = biological target: T7, Human κ-Opioid (KOP) (Homo sapiens, UniProt P41145); assay: Radioligand binding, human κ-opioid (KOP) membranes, filtration, [3H]-Diprenorphine; settings: compound at 10 μM; for A2: inhibition of radioligand binding: [3H]-Diprenorphine, human KOP membranes
T7 construct: purchased Perkin Elmer Biosignal
Method in brief: as §2

Human δ-opioid (DOP) = biological target: T8, Human δ-opioid (DOP) (Homo sapiens, UniProt P41143); assay: Radioligand binding, human δ-opioid (DOP) membranes, FlashPlate, [3H]-Bremazocine; settings: compound at 10 μM; for A1: inhibition of radioligand binding: [3H]-Bremazocine, human DOP membranes
T8 construct: purchased Perkin Elmer Biosignal
Method in brief: as §1

Human Melanocortin (MC3) = biological target: T9, Human Melanocortin (MC3) (Homo sapiens, UniProt P41968); assay: Radioligand binding, human melanocortin MC3 membranes, FlashPlate, [125I]-NDP-αMSH; settings: compound at 10 μM; for A3: inhibition of radioligand binding: [125I]-NDP-αMSH, human MC3 membranes
T9 construct: purchased Perkin Elmer Biosignal
Method in brief: as §1

Human melanocortin (MC5) = biological target: T10, Human melanocortin (MC5) (Homo sapiens, UniProt P33032); assay: Radioligand binding, human melanocortin MC5 membranes, FlashPlate, [125I]-NDP-αMSH; settings: compound at 10 μM; for A5: inhibition of radioligand binding: [125I]-NDP-αMSH, human MC5 membranes
T10 construct: purchased Perkin Elmer Biosignal
Method in brief: as §1

[2] = biological target: T11, Human neuropeptide Y (NPY-Y1) (Homo sapiens, UniProt P25929); assay: Radioligand binding, human neuropeptide Y NPY-Y1 membranes, FlashPlate, [125I]-PYY; settings: compound at 10 μM, human NPY-Y1 membranes; for A9: inhibition of radioligand binding: [125I]-PYY
T11 construct: purchased Perkin Elmer Biosignal
T11 sequence (P25929 1-384): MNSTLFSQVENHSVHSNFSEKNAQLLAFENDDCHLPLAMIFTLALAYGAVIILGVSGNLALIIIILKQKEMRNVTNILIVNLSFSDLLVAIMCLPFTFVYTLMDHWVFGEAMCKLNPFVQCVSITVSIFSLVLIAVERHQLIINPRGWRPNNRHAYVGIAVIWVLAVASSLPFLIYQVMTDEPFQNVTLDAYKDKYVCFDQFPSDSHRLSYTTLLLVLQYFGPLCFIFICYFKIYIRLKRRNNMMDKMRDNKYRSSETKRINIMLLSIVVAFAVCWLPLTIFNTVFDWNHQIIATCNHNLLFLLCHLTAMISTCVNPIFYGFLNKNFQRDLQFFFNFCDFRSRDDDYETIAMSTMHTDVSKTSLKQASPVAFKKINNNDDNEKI
Method in brief: as §1

T10 sequence (P33032 whole entry): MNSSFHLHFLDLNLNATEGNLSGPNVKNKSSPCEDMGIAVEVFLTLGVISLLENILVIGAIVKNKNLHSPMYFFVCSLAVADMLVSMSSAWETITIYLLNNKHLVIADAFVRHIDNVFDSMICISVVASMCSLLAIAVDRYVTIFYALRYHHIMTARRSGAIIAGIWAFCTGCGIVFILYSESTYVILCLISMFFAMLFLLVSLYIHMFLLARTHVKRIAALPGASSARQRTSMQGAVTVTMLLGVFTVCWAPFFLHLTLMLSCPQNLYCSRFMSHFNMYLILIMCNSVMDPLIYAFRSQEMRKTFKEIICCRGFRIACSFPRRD
T3 sequence (Q99705 whole entry): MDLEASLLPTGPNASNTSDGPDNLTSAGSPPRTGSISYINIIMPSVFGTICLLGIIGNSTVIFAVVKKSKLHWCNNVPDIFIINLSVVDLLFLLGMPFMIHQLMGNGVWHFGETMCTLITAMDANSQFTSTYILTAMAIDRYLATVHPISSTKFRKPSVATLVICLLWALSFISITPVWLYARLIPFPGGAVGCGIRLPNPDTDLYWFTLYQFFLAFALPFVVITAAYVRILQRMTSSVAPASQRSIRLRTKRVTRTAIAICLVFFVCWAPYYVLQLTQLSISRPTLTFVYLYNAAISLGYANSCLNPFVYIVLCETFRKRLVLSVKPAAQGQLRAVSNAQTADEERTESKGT
T6 sequence (P41146 whole entry): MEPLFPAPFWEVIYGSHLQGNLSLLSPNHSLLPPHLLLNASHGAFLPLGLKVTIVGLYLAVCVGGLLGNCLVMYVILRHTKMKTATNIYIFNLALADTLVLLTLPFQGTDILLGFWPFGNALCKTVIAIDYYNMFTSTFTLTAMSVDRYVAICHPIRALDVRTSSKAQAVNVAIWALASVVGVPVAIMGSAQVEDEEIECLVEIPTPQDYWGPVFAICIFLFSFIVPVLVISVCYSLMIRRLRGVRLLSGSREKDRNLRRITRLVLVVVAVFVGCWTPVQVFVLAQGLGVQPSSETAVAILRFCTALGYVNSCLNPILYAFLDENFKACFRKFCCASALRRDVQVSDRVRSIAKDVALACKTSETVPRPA
T1 sequence (P35372 whole entry): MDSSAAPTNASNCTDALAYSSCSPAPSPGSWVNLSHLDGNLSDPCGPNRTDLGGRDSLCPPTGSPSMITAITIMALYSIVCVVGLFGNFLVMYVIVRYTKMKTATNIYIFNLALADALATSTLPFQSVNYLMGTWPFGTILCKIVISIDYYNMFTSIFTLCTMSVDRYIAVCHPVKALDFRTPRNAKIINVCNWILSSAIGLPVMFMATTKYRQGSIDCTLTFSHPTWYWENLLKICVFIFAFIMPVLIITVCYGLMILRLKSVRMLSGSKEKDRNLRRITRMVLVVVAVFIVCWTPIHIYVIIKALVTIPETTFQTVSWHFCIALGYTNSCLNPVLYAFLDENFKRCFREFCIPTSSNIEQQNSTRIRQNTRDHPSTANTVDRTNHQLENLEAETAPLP
T7 sequence (P41145 whole entry): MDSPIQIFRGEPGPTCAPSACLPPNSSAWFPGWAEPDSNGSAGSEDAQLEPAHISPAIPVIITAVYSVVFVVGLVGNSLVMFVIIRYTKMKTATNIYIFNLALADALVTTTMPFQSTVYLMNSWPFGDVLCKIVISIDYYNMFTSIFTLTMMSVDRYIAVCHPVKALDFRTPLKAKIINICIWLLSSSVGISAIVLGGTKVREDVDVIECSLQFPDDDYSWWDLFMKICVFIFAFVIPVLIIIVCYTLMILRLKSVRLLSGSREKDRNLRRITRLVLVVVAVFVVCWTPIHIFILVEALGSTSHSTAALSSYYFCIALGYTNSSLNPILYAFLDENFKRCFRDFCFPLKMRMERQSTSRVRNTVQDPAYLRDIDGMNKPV
T8 sequence (P41143 whole entry): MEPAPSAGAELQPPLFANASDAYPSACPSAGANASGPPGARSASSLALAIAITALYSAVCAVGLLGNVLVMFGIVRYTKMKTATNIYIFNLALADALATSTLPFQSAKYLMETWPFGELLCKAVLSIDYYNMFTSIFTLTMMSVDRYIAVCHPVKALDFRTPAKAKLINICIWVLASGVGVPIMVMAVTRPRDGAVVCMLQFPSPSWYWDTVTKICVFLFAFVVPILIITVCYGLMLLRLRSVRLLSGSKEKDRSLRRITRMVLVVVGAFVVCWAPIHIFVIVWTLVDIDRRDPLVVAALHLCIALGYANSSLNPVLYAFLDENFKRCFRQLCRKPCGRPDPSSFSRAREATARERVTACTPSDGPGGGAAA
T2 sequence (P25103 whole entry): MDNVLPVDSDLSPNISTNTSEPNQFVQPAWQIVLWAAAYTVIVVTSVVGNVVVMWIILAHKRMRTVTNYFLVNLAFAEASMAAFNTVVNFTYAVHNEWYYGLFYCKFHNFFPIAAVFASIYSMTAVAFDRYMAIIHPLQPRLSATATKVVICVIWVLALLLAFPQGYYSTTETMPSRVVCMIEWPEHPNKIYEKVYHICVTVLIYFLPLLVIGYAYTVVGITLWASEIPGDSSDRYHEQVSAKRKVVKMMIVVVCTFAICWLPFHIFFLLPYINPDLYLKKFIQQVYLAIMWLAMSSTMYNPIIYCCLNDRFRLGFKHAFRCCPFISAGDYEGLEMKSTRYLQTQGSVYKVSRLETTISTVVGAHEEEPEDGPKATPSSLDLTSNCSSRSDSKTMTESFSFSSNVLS
T9 sequence (P41968 whole entry): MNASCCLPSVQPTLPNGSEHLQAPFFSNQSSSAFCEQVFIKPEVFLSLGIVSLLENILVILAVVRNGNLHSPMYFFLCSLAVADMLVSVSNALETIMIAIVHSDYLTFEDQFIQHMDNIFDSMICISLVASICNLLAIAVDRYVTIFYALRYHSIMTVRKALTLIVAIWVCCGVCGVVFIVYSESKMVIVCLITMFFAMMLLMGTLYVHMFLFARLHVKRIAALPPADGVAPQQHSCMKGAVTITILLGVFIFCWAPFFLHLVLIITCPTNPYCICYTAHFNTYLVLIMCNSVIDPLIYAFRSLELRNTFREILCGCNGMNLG
T5 sequence (P32245 whole entry): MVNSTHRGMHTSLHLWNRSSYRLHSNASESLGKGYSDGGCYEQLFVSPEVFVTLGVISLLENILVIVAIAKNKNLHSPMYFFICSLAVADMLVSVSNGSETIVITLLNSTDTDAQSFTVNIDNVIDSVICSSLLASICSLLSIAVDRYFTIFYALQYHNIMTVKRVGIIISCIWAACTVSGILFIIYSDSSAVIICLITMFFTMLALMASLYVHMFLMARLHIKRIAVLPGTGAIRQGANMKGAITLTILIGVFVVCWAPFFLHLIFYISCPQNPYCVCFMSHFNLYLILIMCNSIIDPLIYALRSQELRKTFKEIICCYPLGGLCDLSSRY

Compound | A7: inhibition of radioligand binding (Human μ-opioid (MOP)) | A8: inhibition of radioligand binding (Human neurokinin (NK1)) | A6: inhibition of radioligand binding [1] | A11: inhibition of radioligand binding (Mouse urotensin (mUR2)) | A10: inhibition of radioligand binding (Human opioid (ORL1)) | A2: inhibition of radioligand binding (Human κ-Opioid (KOP)) | A1: inhibition of radioligand binding (Human δ-opioid (DOP)) | A5: inhibition of radioligand binding (Human melanocortin (MC5)) | A9: inhibition of radioligand binding [2] | other results
NCCC(=O)NC1C(OCc2ccc3ccccc3c2)OC(COCc2ccc3ccccc3c2)C(O)C1OCc1ccc2ccccc2c1 (stereo not drawn) [compound 384] | − (“−” indicates less than 50% inhibition at 10 μM) | + (“+” indicates greater than 50% inhibition at 10 μM) | + (“+” indicates greater than 50% inhibition at 10 μM) | − (“−” indicates less than 50% inhibition at 10 μM) | − (“−” indicates less than 50% inhibition at 10 μM) | − (“−” indicates less than 50% inhibition at 10 μM) | − (“−” indicates less than 50% inhibition at 10 μM) | + (“+” indicates greater than 50% inhibition at 10 μM) | − (“−” indicates less than 50% inhibition at 10 μM) | A4: inhibition of radioligand binding (Human Melanocortin (MC4)): + (“+” indicates greater than 50% inhibition at 10 μM); A3: inhibition of radioligand binding (Human Melanocortin (MC3)): + (“+” indicates greater than 50% inhibition at 10 μM)
CO[C@H]1[C@H](O)[C@@H](COCc2ccc(-c3ccccc3)cc2)OC(OCc2ccc3ccccc3c2)[C@@H]1NC(=O)CCCNC(=N)N (stereo partly drawn) [compound 69] | – | – | – | – | – | – | – | – | – | A7 radioligand binding inhibition (Human μ-opioid (MOP); human μ-opioid (MOP) membranes): + (“+” indicates greater than 50% inhibition at 10 μM); A8 radioligand binding inhibition (Human neurokinin (NK1); human neurokinin NK1 membranes): + (“+” indicates greater than 50% inhibition at 10 μM); A6 radioligand binding inhibition ([1]; human MCH1 membranes): + (“+” indicates greater than 50% inhibition at 10 μM); A11 radioligand binding inhibition (Mouse urotensin (mUR2); mouse urotensin mUR2 membranes): − (“−” indicates less than 50% inhibition at 10 μM); A4 radioligand binding inhibition (Human Melanocortin (MC4); human melanocortin MC4 membranes): + (“+” indicates greater than 50% inhibition at 10 μM); A10 radioligand binding inhibition (Human opioid (ORL1)): + (“+” indicates greater than 50% inhibition at 10 μM); A2 radioligand binding inhibition (Human κ-Opioid (KOP); human κ-opioid (KOP) membranes): − (“−” indicates less than 50% inhibition at 10 μM); A1 radioligand binding inhibition (Human δ-opioid (DOP); human δ-opioid (DOP) membranes): − (“−” indicates less than 50% inhibition at 10 μM); A3 radioligand binding inhibition (Human Melanocortin (MC3); human melanocortin MC3 membranes): + (“+” indicates greater than 50% inhibition at 10 μM); A5 radioligand binding inhibition (Human melanocortin (MC5); human melanocortin MC5 membranes): + (“+” indicates greater than 50% inhibition at 10 μM); A9 radioligand binding inhibition [2]: − (“−” indicates less than 50% inhibition at 10 μM)
NCCC(=O)N[C@H]1C(OCc2ccc3ccccc3c2)O[C@H](COCc2ccc(Cl)cc2)[C@@H](O)[C@@H]1OCc1ccc(Cl)cc1 (stereo partly drawn) [compound 441] | − (“−” indicates less than 50% inhibition at 10 μM) | + (“+” indicates greater than 50% inhibition at 10 μM) | + (“+” indicates greater than 50% inhibition at 10 μM) | − (“−” indicates less than 50% inhibition at 10 μM) | − (“−” indicates less than 50% inhibition at 10 μM) | − (“−” indicates less than 50% inhibition at 10 μM) | − (“−” indicates less than 50% inhibition at 10 μM) | + (“+” indicates greater than 50% inhibition at 10 μM) | − (“−” indicates less than 50% inhibition at 10 μM) | A4: inhibition of radioligand binding (Human Melanocortin (MC4); 10 µM): + (“+” indicates greater than 50% inhibition at 10 μM); A3: inhibition of radioligand binding (Human Melanocortin (MC3); 10 µM): + (“+” indicates greater than 50% inhibition at 10 μM)
